Measurements: patent publication US3985747A, “Crystalline sesquihydrate of 7-[D-α-amino-α-(p-hydroxyphenyl)acetamido]-3-(1,2,3-triazol- 5-ylthiomethyl)-3-cephem-4-carboxylic acid” (priority 1974, dated 1976)
≈ marks a conversion by molar mass, not a printed value. Where a name gives a salt, the structure may show the parent alone. Read-outs that look alike come from different tables or passages of the source.

What was measured:
D. pneumoniae A9585 = assay: M.I.C. by Tube Dilution; assay type: cell-based; conditions: Streptococcus pneumoniae, at 10^-3 dil'n, + 5% serum, 50% Nutrient Broth - 45% Antibiotic Assay Broth, overnight 37° C.
Str. Pyogenes A9604 = assay: M.I.C. by Tube Dilution; assay type: cell-based; conditions: Streptococcus pyogenes; at 10^-3 dil'n, + 5% serum; 50% Nutrient Broth - 45% Antibiotic Assay Broth; overnight 37° C.
S. aureus Smith A9537 = assay: M.I.C. by Tube Dilution; assay type: cell-based; conditions: Staphylococcus aureus, overnight 37° C.
S. aureus BX1633-2 A9606 = assay: M.I.C. by Tube Dilution; assay type: cell-based; conditions: Staphylococcus aureus, overnight 37° C.
Sal.enteritidis A9531 = assay: M.I.C. by Tube Dilution; assay type: cell-based; conditions: Salmonella enterica
E. coli A9675 = assay: M.I.C. by Tube Dilution; assay type: cell-based; conditions: Escherichia coli
in vivo [1] = assay: in vivo; set-up: species or system mice; conditions: mouse, im, 10 mg/kg
Protocol: Mouse Blood Levels after IM Administration of 10 mg./kg. Dose of BL-S640

[2] = Loss of bioactivity of the solid on storage at elevated temperatures; assay type: physicochemical; conditions: for Loss of bioactivity (potency) on storage: 43800 min
Water solubility = assay type: physicochemical
physchem = assay type: physicochemical; conditions: for Bioassay: solution pH 7.1, room temperature
Description: The above components are shaken to form an amber solution having a pH = 7.1. The solution was allowed to stand at room temperature and periodically assayed to determine stability.

bacteria = assay: Antibacterial testing in vitro and in vivo; conditions: versus that reported in U.S. application Ser. No. 318,340
[3] = in vivo, po
in vivo [4] = conditions: mouse, blood, po, 100 mg/kg
K. pneumoniae A9977 = assay: M.I.C. by Tube Dilution; conditions: Klebsiella pneumoniae
Pr. mirabilis A9900 = assay: M.I.C. by Tube Dilution; conditions: Proteus mirabilis
Pr. morganii A15153 = assay: M.I.C. by Tube Dilution; conditions: Morganella morganii
Ser. marcescens A20019 = assay: M.I.C. by Tube Dilution; conditions: Serratia marcescens
Ent. cloacae A9656 = assay: M.I.C. by Tube Dilution; conditions: Enterobacter cloacae
Ent. cloacae A9657 = assay: M.I.C. by Tube Dilution; conditions: Enterobacter cloacae
Ent. cloacae A9659 = assay: M.I.C. by Tube Dilution; conditions: Enterobacter cloacae
[5] = test system: S. aureus(methicillin resist) A15097; assay: microbe, parasite or virus in culture; conditions: Staphylococcus aureus
E. coli Juhl A15119 = assay: microbe, parasite or virus in culture; conditions: Escherichia coli, JUHLA15119
K. pneumoniae A15130 = assay: microbe, parasite or virus in culture; conditions: Klebsiella pneumoniae
Ps. aeruginosa A9843A = assay: microbe, parasite or virus in culture; conditions: Pseudomonas aeruginosa
[6] = pH 7
[7] = Loss of bound water on drying; assay type: physicochemical; conditions: very mild conditions (air drying 37° - 45° C., 24 hours)
Protocol: Upon recovery of the crystalline hydrate from the reaction mixture and cooling to room temperature, the hydrate is ordinarily isolated in the form of the crystalline dihydrate. […] […] […] Upon vacuum drying at 56° C. for 24 hours a crystalline hemihydrate is formed having 0.5 moles of bound water per mole of cephalosporin. All of the above-mentioned novel crystalline hydrates are included within the scope of the present invention.

[8] = SMITHA9537, at 10^-4 dilution, + 50% serum
[9] = at 10^-4 dilution, overnight 37° C., read-out: M.I.C.

In the case of `N[C@@H](C(=O)N[C@@H]1C(=O)N2C(C(=O)O)=C(CSc3c[nH]nn3)CS[C@H]12)c1ccc(O)cc1` [BL-S640 Sesquihydrate, 7-[D-α-amino-α-(p-hydroxyphenyl)acetamido]-3-(1,2,3-triazol-5-ylthiomethyl)-3-cephem-4-carboxylic acid sesquihydrate], the MIC (D. pneumoniae A9585) is reported as 0.02 µg/mL, the MIC (Str. Pyogenes A9604) is reported as 0.02 µg/mL and the MIC (S. aureus Smith A9537; [8]) is reported as 1 µg/mL. It also gave an MIC (S. aureus Smith A9537; SMITHA9537, at 10^-4 dilution, read-out: M.I.C.) of 0.3 µg/mL, an MIC (S. aureus BX1633-2 A9606; BX16332A9606, at 10^-2 dil'n) of 2 µg/mL and an MIC (S. aureus BX1633-2 A9606; BX16332A9606, at 10^-3 dil'n, read-out: M.I.C.) of 0.6 µg/mL. For the same compound, the MIC (Sal.enteritidis A9531; [9]) was 0.6 µg/mL, the MIC (E. coli A9675; [9]) was 4 µg/mL and the concentration at 5 min (in vivo [1]) was 15000 ng/mL. For the same compound, the concentration at 0.5 h (in vivo [1]) was 13500 ng/mL, the concentration at 1 h (in vivo [1]) was 9400 ng/mL and the concentration at 1.5 h (in vivo [1]) was 6800 ng/mL. The degraded at 730 h ([2]; solid, 56° C., 1 month, read-out: Loss of bioactivity (potency) on storage) was under 6%, the solubility (Water solubility; 25° C., read-out: Solubility in water) was about 10000 µg/mL and the Bio-assay (Bio-assay (biopotency)) was 924 µg/mg. It also gave a degraded at 0.5 h (physchem; aqueous solution, pH 7.1) of 0.8%, a degraded at 1 h (physchem; aqueous solution, pH 7.1) of 5.8% and a degraded at 1.5 h (physchem; aqueous solution, pH 7.1) of 8.3%. For the same compound, the degraded at 2 h (physchem; aqueous solution, pH 7.1) was 15.9%, the degraded at […] (physchem; aqueous solution, pH 7.1) was 0.8% and the Bioassay (physchem; 15 minutes) was 238 mg/mL. The Bioassay (physchem; 30 minutes) was 238 mg/mL, the Bioassay (physchem; 60 minutes) was 226 mg/mL and the Bioassay (physchem; 90 minutes) was 220 mg/mL. For the same compound, the Bioassay (physchem; 2 hours) was 202 mg/mL, the Bioassay (physchem; time 0) was 240 mg/mL and the “Potency and spectrum of activity” value (bacteria) was “substantially the same potency and spectrum of activity”. For the same compound, the “Biological activity when suspended in water” value was “does not lose biological activity”, the Blood levels [3] was “effective blood levels” and the concentration at 0.5 h (in vivo [4]) was 46000 ng/mL. For the same compound, the concentration at 1 h (in vivo [4]) was 42500 ng/mL, the concentration at 2 h (in vivo [4]) was 22500 ng/mL and the concentration at 3.5 h (in vivo [4]) was 11900 ng/mL. For the same compound, the MIC (K. pneumoniae A9977) was 1 µg/mL, the MIC (Pr. mirabilis A9900) was 0.5 µg/mL and the MIC (Pr. morganii A15153) was 16 µg/mL. It also gave an MIC (Ser. marcescens A20019) of 125 µg/mL, an MIC (Ent. cloacae A9656) of over 125 µg/mL and an MIC (Ent. cloacae A9657) of 1 µg/mL. The MIC (Ent. cloacae A9659) was 32 µg/mL, the MIC [5] was 8 µg/mL and the MIC (E. coli Juhl A15119) was 2 µg/mL. It also gave an MIC (K. pneumoniae A15130) of 2 µg/mL and an MIC (Ps. aeruginosa A9843A) of over 125 µg/mL.
`N[C@@H](C(=O)NC1C(=O)N2C(C(=O)O)=C(CSc3cnn[nH]3)CSC12)c1ccc(O)cc1` (stereo partly drawn) [Crystalline Methanol Solvate, 7-[D-α-amino-α-(p-hydroxyphenyl)acetamido]-3-(1,2,3-triazol-5-ylthiomethyl)-3-cephem-4-carboxylic acid methanol solvate] gave a Bio-assay (Bio-assay (biopotency)) of 850 to 900 µg/mg.
In the case of `N[C@@H](C(=O)NC1C(=O)N2C(C(=O)O)=C(CSc3cnn[nH]3)CSC12)c1ccc(O)cc1` (some centres unmarked) [amorphous monohydrate product], the “Loss of bioactivity (potency) on storage” value ([2]; 56° C., 1 month) is reported as 37%.
In the case of `N[C@@H](C(=O)NC1C(=O)N2C(C(=O)O)=C(CSc3cnn[nH]3)CS[C@H]12)c1ccc(O)cc1` (stereo partly drawn) [BL-S640, 7-[D-α-Amino-α-(p-hydroxyphenyl)acetamido]-3-(1,2,3-triazol-5-ylthiomethyl)-3-cephem-4-carboxylic acid], the “Degradation at alkaline pH” value [6] is reported as “degrades very rapidly by loss of the thiol moiety”.
For `N[C@@H](C(=O)NC1C(=O)N2C(C(=O)O)=C(CSc3cnn[nH]3)CSC12)c1ccc(O)cc1` (stereo partly drawn) [propylene glycol solvate, 7-[D-α-amino-α-(p-hydroxyphenyl)acetamido]-3-(1,2,3-triazol-5-ylthiomethyl)-3-cephem-4-carboxylic acid propylene glycol solvate], the “Loss of bioactivity (potency) on storage” value ([2]; 56° C., 1 month) was under 10%, the degraded at 24 h ([2]; solid, 100° C., 24 hours) was under 6% and the degraded at 48 h ([2]; solid, 100° C., 48 hours) was under 12%. The solubility (Water solubility; 23° C., read-out: Water solubility) was about 10000 µg/mL and the Bio-assay (Bio-assay (biopotency)) was 750 to 790 µg/mg.
In the case of `Cc1nnc(SCC2=C(C(=O)O)N3C(=O)[C@@H](NC(=O)Cn4cnnn4)[C@H]3SC2)s1` [Cefazolin, Na salt, sodium cefazolin, reference compound], the concentration at 5 min (in vivo [1]) is reported as 16100 ng/mL, the concentration at 0.5 h (in vivo [1]) is reported as 11100 ng/mL and the concentration at 1 h (in vivo [1]) is reported as 5700 ng/mL. The concentration at 1.5 h (in vivo [1]) was 2900 ng/mL.
In the case of `CC1=C(C(=O)O)N2C(=O)[C@@H](NC(=O)[C@H](N)c3ccccc3)[C@H]2SC1` [Cephalexin, cephalexin, reference compound], the MIC (S. aureus Smith A9537; [8]) is reported as 2.5 µg/mL, the MIC (S. aureus Smith A9537; SMITHA9537, at 10^-4 dilution) is reported as 0.6 µg/mL (≈ 1.73 µM) and the MIC (S. aureus BX1633-2 A9606; BX16332A9606, at 10^-2 dil'n) is reported as 2 µg/mL (≈ 5.76 µM). For the same compound, the MIC (S. aureus BX1633-2 A9606; BX16332A9606, at 10^-3 dil'n) was 1 µg/mL (≈ 2.88 µM), the MIC (Sal.enteritidis A9531) was 2 µg/mL (≈ 5.76 µM) and the MIC (E. coli A9675) was 16 µg/mL (≈ 46.1 µM). It also gave an MIC (K. pneumoniae A9977) of 2 µg/mL (≈ 5.76 µM), an MIC (Pr. mirabilis A9900) of 2 µg/mL (≈ 5.76 µM) and an MIC (Pr. morganii A15153) of over 125 µg/mL. The MIC (Ser. marcescens A20019) was over 125 µg/mL, the MIC (Ent. cloacae A9656) was over 125 µg/mL and the MIC (Ent. cloacae A9659) was over 125 µg/mL. It also gave an MIC [5] of 32 µg/mL (≈ 92.1 µM), an MIC (E. coli Juhl A15119) of 4 µg/mL (≈ 11.5 µM) and an MIC (K. pneumoniae A15130) of 8 µg/mL (≈ 23 µM). The MIC (Ps. aeruginosa A9843A) was over 125 µg/mL.
In the case of `N[C@@H](C(=O)NC1C(=O)N2C(C(=O)O)=C(CSc3cnn[nH]3)CS[C@H]12)c1ccc(O)cc1.O.O` (stereo partly drawn) [dihydrate, 7-[D-α-Amino-α-(p-hydroxyphenyl)-acetamido]-3-(1,2,3-triazol-5-ylthiomethyl)-3-cephem-4-carboxylic acid dihydrate], the Bio-assay (Bio-assay (biopotency)) is reported as 950 to 1000 µg/mg and the “Loss of bound water” value [7] is reported as “lose one-half molecule of bound water”.
